In PubChem BioAssay (NCI):
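Cells were grown in 96-well plates and exposed to each compound for 48 hours at five concentrations; endpoints were interpolated linearly between bracketing concentrations, or set to the highest concentration if not reached. At the GI50, growth is halved. TGI marks complete inhibition of growth.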

Assays:
Experiment in all cases: NCI anticancer screen, dose series, 48 h
SF-539 CNS = test system: SF-539 CNS
SW-620 colon = test system: SW-620 colon
CCRF-CEM leukemia = test system: CCRF-CEM leukemia
SK-MEL-5 melanoma = test system: SK-MEL-5 melanoma
MDA-MB-231 breast = test system: MDA-MB-231 breast
NCI-H23 lung = test system: NCI-H23 lung
MOLT-4 leukemia = test system: MOLT-4 leukemia
SF-268 CNS = test system: SF-268 CNS
RXF 393 renal = test system: RXF 393 renal
NCI-H460 lung = test system: NCI-H460 lung

SMILES | GI50 (SF-539 CNS) [µM] | TGI (SF-539 CNS) [µM] | GI50 (SW-620 colon) [µM] | TGI (SW-620 colon) [µM] | GI50 (CCRF-CEM leukemia) [µM] | TGI (CCRF-CEM leukemia) [µM] | GI50 (SK-MEL-5 melanoma) [µM] | TGI (SK-MEL-5 melanoma) [µM] | GI50 (MDA-MB-231 breast) [µM] | TGI (MDA-MB-231 breast) [µM] | GI50 (NCI-H23 lung) [µM] | TGI (NCI-H23 lung) [µM] | GI50 (MOLT-4 leukemia) [µM] | TGI (MOLT-4 leukemia) [µM] | GI50 (SF-268 CNS) [µM] | TGI (SF-268 CNS) [µM] | TGI (RXF 393 renal) [µM] | TGI (NCI-H460 lung) [µM] | GI50 (NCI-H460 lung) [µM]
Cc1ccc2[nH]cc(-c3nc(-c4c[nH]c5ncccc45)cs3)c2c1 | > 100 | > 100 | > 100 | > 100 | > 100 | > 100 | > 100 | > 100 | > 100 | > 100 | > 100 | > 100 | > 100 | > 100 | > 100 | > 100 | – | – | –
CCCC/C=C1\CCC(CN2CCCCC2)C1=O (centres undefined) | – | 36.1 | – | 14.4 | – | 16.2 | – | 42.6 | – | > 100 | – | 45.1 | – | 18.4 | – | 51.6 | 18.1 | 55.5 | –
COc1ccc2[nH]c(C(=O)N3CC(CCl)c4ccc(N)cc43)cc2c1 (centres undefined) | – | 1.7 | – | > 100 | – | 1.44 | – | 0.195 | – | 0.545 | – | 0.501 | – | > 100 | – | – | 0.251 | 3.24 | –
CC(=O)OC(Cc1cc(C=C(C(F)(F)F)C(F)(F)F)cc(C)n1)(C(F)(F)F)C(F)(F)F | – | 5.27 | – | 5.67 | – | – | – | 2.82 | – | 4.65 | – | 3.32 | – | – | – | 5.81 | 2.4 | 5.09 | –
O=C1C(Br)=CC2([N+](=O)[O-])CCNc3c(O)c4c5c(c3C2=C1Br)=NCCC=5C=N4 (centres undefined) | – | 4.55 | – | 4 | – | 1.41 | – | 1.33 | – | – | – | 3.41 | – | – | – | 6.27 | 7.76 | 12.1 | –
COc1ccc2c3c1OC1CC(O)C=CC31CCN(C)C2 (centres undefined) | – | > 33.8 | – | > 150 | – | > 150 | – | > 150 | – | – | – | > 150 | – | > 150 | – | > 91.8 | > 150 | > 150 | –
COC(=O)/C=C\Sc1ccn(/C=C\C(=O)OC)c(=S)n1 | – | 36.9 | – | 56.5 | – | > 100 | – | 80.6 | – | 56.7 | – | 64.3 | – | – | – | 65.9 | 23.3 | – | –
CN(C)c1ccc(N2C(=S)SC(=Nc3ccccc3)C2=Nc2ccccc2)cc1 | – | – | – | – | – | > 100 | – | > 100 | – | > 100 | – | > 100 | – | – | – | – | > 100 | > 100 | –
CC1(C)OP23(NC(=O)OC2(C(F)(F)F)c2ccccc2O3)OC1(C)C (centres undefined) | – | > 100 | – | – | – | > 100 | – | > 100 | – | – | – | > 100 | – | > 100 | – | > 100 | > 100 | > 100 | –
CCOC(=O)/C(O)=C1\C(=O)N(C)C(=O)C1c1ccc(OC)c(OC)c1 (centres undefined) | – | > 100 | – | > 31.6 | – | > 100 | – | > 100 | – | – | – | > 100 | – | > 100 | – | > 100 | > 100 | > 100 | –
CC(=O)O[C@H]1CC[C@@]2(C)C(=CC[C@@H]3[C@@H]2CC[C@]2(C)C(c4cccnc4)=CC[C@@H]32)C1 | 3.14 | > 100 | 5.81 | > 100 | 16.7 | > 100 | 2.89 | 10.1 | 5.23 | 33.7 | 6.6 | > 100 | 6.3 | > 100 | 9.61 | > 100 | – | > 100 | 5.91
